Columns and labels:
morningglory = test: Test B pre/postemergence morningglory; assay type: in vivo, Ipomoea hederacea
How it was run: (§1)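 Response is a visual 0-to-10 score relative to untreated plants, where 0 means no effect and 10 means complete control, taken twelve to sixteen days after application. Treatments went onto soil at planting and onto foliage of 1- to 4-leaf plants, using a surfactant-containing non-phytotoxic solvent.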

blackgrass = test: Test B pre/postemergence blackgrass; assay type: in vivo, Alopecurus myosuroides
How it was run: as §1

wheat = test: Test B pre/postemergence wheat; assay type: in vivo, Triticum aestivum
How it was run: as §1

soybean = test: Test B pre/postemergence soybean; assay type: in vivo, Glycine max
How it was run: as §1

crabgrass = test: Test B pre/postemergence crabgrass; assay type: in vivo, Digitaria sanguinalis
How it was run: as §1

bedstraw = test: Test B pre/postemergence bedstraw; assay type: in vivo, Galium aparine
How it was run: as §1

wild oat = test: Test B pre/postemergence wild oat; assay type: in vivo, Avena fatua
How it was run: as §1

cocklebur = test: Test B pre/postemergence cocklebur; assay type: in vivo, Xanthium strumarium
How it was run: as §1

rape = test: Test B pre/postemergence rape; assay type: in vivo, Brassica napus
How it was run: as §1

sugar beet = test: Test B pre/postemergence sugar beet; assay type: in vivo, Beta vulgaris
How it was run: as §1

purple nutsedge = test: Test B pre/postemergence purple nutsedge; assay type: in vivo, Cyperus rotundus
How it was run: as §1

surinam grass = test: Test B pre/postemergence surinam grass; assay type: in vivo, Brachiaria decumbens
How it was run: as §1

corn = test: Test B pre/postemergence corn; assay type: in vivo, Zea mays
How it was run: as §1

pigweed = test: Test B pre/postemergence pigweed; assay type: in vivo, Amaranthus retroflexus
How it was run: as §1

velvetleaf = test: Test B pre/postemergence velvetleaf; assay type: in vivo, Abutilon theophrasti
How it was run: as §1

giant foxtail = test: Test B pre/postemergence giant foxtail; assay type: in vivo, Setaria faberii
How it was run: as §1

[1] = Postemergence, Rate 62 g/ha, scale 0 to 10, 0 is no effect, 10 is complete control
[2] = Postemergence, Rate 125 g/ha, scale of 0 to 10 where 0 is no effect and 10 is complete control
[3] = Postemergence, Rate 500 g/ha, scale 0 (no effect) to 10 (complete control)
[4] = Rate 62 g/ha, Preemergence, scale 0 to 10
[5] = Rate 125 g/ha, Preemergence, scale 0 to 10 (0 no effect, 10 complete control)
[6] = Rate 250 g/ha, Postemergence, scale 0 to 10, 0 is no effect, 10 is complete control
[7] = Rate 500 g/ha, Preemergence, scale 0 to 10 (0 no effect, 10 complete control)
[8] = Preemergence, Rate 250 g/ha, scale 0 (no effect) to 10 (complete control)
[9] = Rate 62 g/ha, Preemergence, scale 0 (no effect) to 10 (complete control)
[10] = Rate 500 g/ha, Postemergence, scale 0 to 10, 0 is no effect, 10 is complete control

Structure (SMILES): CCOC(CC)n1c(=O)on(C(=O)N(c2ccccc2)C(C)C)c1=O (stereo not shown) [Compound 773]
- Plant response rating, Morningglory (morningglory; [1]): 0
- Morningglory plant response rating (morningglory; [2]): 0
- Morningglory plant response rating (morningglory; [3]): 0
- Morningglory plant response rating (morningglory; [4]): 0
- Morningglory plant response rating (morningglory; [5]): 0
- Morningglory plant response rating (morningglory; [6]): 0
- Morningglory plant response rating (morningglory; [7]): 0
- Plant response rating, Blackgrass (blackgrass; [1]): 0
- Blackgrass plant response rating (blackgrass; [2]): 0
- Blackgrass plant response rating (blackgrass; [3]): 0
- Blackgrass plant response rating (blackgrass; [8]): 0
- Blackgrass plant response rating (blackgrass; [4]): 0
- Blackgrass plant response rating (blackgrass; [5]): 0
- Blackgrass plant response rating (blackgrass; [6]): 0
- Blackgrass plant response rating (blackgrass; [7]): 0
- Plant response rating, Wheat (wheat; [1]): 0
- Wheat plant response rating (wheat; [3]): 0
- Wheat plant response rating (wheat; [4]): 0
- Wheat plant response rating (wheat; [5]): 0
- Wheat plant response rating (wheat; [6]): 0
- Wheat plant response rating (wheat; [7]): 0
- Plant response rating, Soybean (soybean; [1]): 0
- Soybean plant response rating (soybean; [3]): 0
- Soybean plant response rating (soybean; [4]): 0
- Soybean plant response rating (soybean; [5]): 0
- Soybean plant response rating (soybean; [6]): 0
- Soybean plant response rating (soybean; [7]): 0
- Plant response rating, Crabgrass (crabgrass; [1]): 0
- Crabgrass plant response rating (crabgrass; [2]): 0
- Crabgrass plant response rating (crabgrass; [3]): 0
- Crabgrass plant response rating (crabgrass; [8]): 0
- Crabgrass plant response rating (crabgrass; [4]): 0
- Crabgrass plant response rating (crabgrass; [5]): 0
- Crabgrass plant response rating (crabgrass; [6]): 0
- Crabgrass plant response rating (crabgrass; [7]): 0
- Plant response rating, Bedstraw (bedstraw; [1]): 0
- Bedstraw plant response rating (bedstraw; [2]): 0
- Bedstraw plant response rating (bedstraw; [3]): 0
- Bedstraw plant response rating (bedstraw; [8]): 0
- Bedstraw plant response rating (bedstraw; [4]): 0
- Bedstraw plant response rating (bedstraw; [5]): 0
- Bedstraw plant response rating (bedstraw; [6]): 0
- Bedstraw plant response rating (bedstraw; [7]): 0
- Plant response rating, Wild oats (wild oat; [1]): 0
- Wild oats plant response rating (wild oat; [3]): 0
- Wild oats plant response rating (wild oat; [4]): 0
- Wild oats plant response rating (wild oat; [5]): 0
- Wild oats plant response rating (wild oat; [6]): 0
- Wild oats plant response rating (wild oat; [7]): 0
- Plant response rating, Cocklebur (cocklebur; [1]): 0
- Cocklebur plant response rating (cocklebur; [2]): 0
- Cocklebur plant response rating (cocklebur; [3]): 0
- Cocklebur plant response rating (cocklebur; [8]): 0
- Cocklebur plant response rating (cocklebur; [4]): 0
- Cocklebur plant response rating (cocklebur; [5]): 0
- Cocklebur plant response rating (cocklebur; [6]): 0
- Cocklebur plant response rating (cocklebur; [7]): 0
- Plant response rating, Rape (rape; [1]): 0
- Rape plant response rating (rape; [2]): 0
- Rape plant response rating (rape; [3]): 0
- Rape plant response rating (rape; [4]): 0
- Rape plant response rating (rape; [5]): 0
- Rape plant response rating (rape; [6]): 0
- Rape plant response rating (rape; [7]): 0
- Plant response rating, Sugarbeets (sugar beet; [1]): 0
- Sugarbeets plant response rating (sugar beet; [3]): 0
- Sugarbeets plant response rating (sugar beet; [4]): 0
- Sugarbeets plant response rating (sugar beet; [5]): 0
- Sugarbeets plant response rating (sugar beet; [6]): 0
- Sugarbeets plant response rating (sugar beet; [7]): 0
- Plant response rating, Nutsedge (purple nutsedge; [1]): 0
- Nutsedge plant response rating (purple nutsedge; [2]): 0
- Nutsedge plant response rating (purple nutsedge; [3]): 0
- Nutsedge plant response rating (purple nutsedge; [4]): 0
- Nutsedge plant response rating (purple nutsedge; [5]): 0
- Nutsedge plant response rating (purple nutsedge; [6]): 0
- Nutsedge plant response rating (purple nutsedge; [7]): 0
- Plant response rating, B. signalgrass (surinam grass; [1]): 0
- B. signalgrass plant response rating (surinam grass; [2]): 0
- B. signalgrass plant response rating (surinam grass; [8]): 0
- B. signalgrass plant response rating (surinam grass; [9]): 0
- B. signalgrass plant response rating (surinam grass; [5]): 0
- B. signalgrass plant response rating (surinam grass; [6]): 0
- B. signalgrass plant response rating (surinam grass; [10]): 0
- B. signalgrass plant response rating (surinam grass; [7]): 0
- Plant response rating, Corn (corn; [1]): 0
- Corn plant response rating (corn; [2]): 0
- Corn plant response rating (corn; [3]): 0
- Corn plant response rating (corn; [8]): 0
- Corn plant response rating (corn; [4]): 0
- Corn plant response rating (corn; [5]): 0
- Corn plant response rating (corn; [6]): 0
- Corn plant response rating (corn; [7]): 0
- Plant response rating, Redroot pigweed (pigweed; [1]): 0
- Redroot pigweed plant response rating (pigweed; [2]): 0
- Redroot pigweed plant response rating (pigweed; [3]): 0
- Redroot pigweed plant response rating (pigweed; [4]): 0
- Redroot pigweed plant response rating (pigweed; [5]): 0
- Redroot pigweed plant response rating (pigweed; [6]): 0
- Redroot pigweed plant response rating (pigweed; [7]): 0
- Plant response rating, Velvetleaf (velvetleaf; [1]): 0
- Velvetleaf plant response rating (velvetleaf; [3]): 0
- Velvetleaf plant response rating (velvetleaf; [4]): 0
- Velvetleaf plant response rating (velvetleaf; [5]): 0
- Velvetleaf plant response rating (velvetleaf; [6]): 0
- Velvetleaf plant response rating (velvetleaf; [7]): 0
- Plant response rating, Giant foxtail (giant foxtail; [1]): 0
- Giant foxtail plant response rating (giant foxtail; [2]): 0
- Giant foxtail plant response rating (giant foxtail; [3]): 0
- Giant foxtail plant response rating (giant foxtail; [8]): 0
- Giant foxtail plant response rating (giant foxtail; [4]): 0
- Giant foxtail plant response rating (giant foxtail; [5]): 0
- Giant foxtail plant response rating (giant foxtail; [6]): 0
- Giant foxtail plant response rating (giant foxtail; [7]): 0

Structure (SMILES): CC(C)N(C(=O)n1oc(=O)n(CCCCCl)c1=O)c1ccc(Cl)cc1 [Compound 791]
- Plant response rating, Morningglory (morningglory; [1]): 3
- Morningglory plant response rating (morningglory; [2]): 3
- Morningglory plant response rating (morningglory; [3]): 9
- Morningglory plant response rating (morningglory; [4]): 0
- Morningglory plant response rating (morningglory; [5]): 0
- Morningglory plant response rating (morningglory; [6]): 9
- Morningglory plant response rating (morningglory; [7]): 0
- Plant response rating, Blackgrass (blackgrass; [1]): 0
- Blackgrass plant response rating (blackgrass; [2]): 2
- Blackgrass plant response rating (blackgrass; [3]): 6
- Blackgrass plant response rating (blackgrass; [8]): 7
- Blackgrass plant response rating (blackgrass; [4]): 0
- Blackgrass plant response rating (blackgrass; [5]): 0
- Blackgrass plant response rating (blackgrass; [6]): 5
- Plant response rating, Wheat (wheat; [1]): 0
- Wheat plant response rating (wheat; [3]): 0
- Wheat plant response rating (wheat; [4]): 0
- Wheat plant response rating (wheat; [5]): 0
- Wheat plant response rating (wheat; [6]): 0
- Plant response rating, Soybean (soybean; [1]): 4
- Soybean plant response rating (soybean; [3]): 5
- Soybean plant response rating (soybean; [4]): 4
- Soybean plant response rating (soybean; [5]): 4
- Soybean plant response rating (soybean; [6]): 5
- Soybean plant response rating (soybean; [7]): 5
- Plant response rating, Crabgrass (crabgrass; [1]): 1
- Crabgrass plant response rating (crabgrass; [2]): 4
- Crabgrass plant response rating (crabgrass; [3]): 9
- Crabgrass plant response rating (crabgrass; [8]): 10
- Crabgrass plant response rating (crabgrass; [4]): 6
- Crabgrass plant response rating (crabgrass; [5]): 6
- Crabgrass plant response rating (crabgrass; [6]): 9
- Crabgrass plant response rating (crabgrass; [7]): 10
- Plant response rating, Bedstraw (bedstraw; [1]): 0
- Bedstraw plant response rating (bedstraw; [3]): 3
- Bedstraw plant response rating (bedstraw; [5]): 0
- Bedstraw plant response rating (bedstraw; [6]): 3
- Plant response rating, Wild oats (wild oat; [1]): 0
- Wild oats plant response rating (wild oat; [3]): 0
- Wild oats plant response rating (wild oat; [4]): 0
- Wild oats plant response rating (wild oat; [5]): 0
- Wild oats plant response rating (wild oat; [6]): 0
- Plant response rating, Cocklebur (cocklebur; [1]): 0
- Cocklebur plant response rating (cocklebur; [2]): 0
- Cocklebur plant response rating (cocklebur; [3]): 5
- Cocklebur plant response rating (cocklebur; [8]): 0
- Cocklebur plant response rating (cocklebur; [4]): 0
- Cocklebur plant response rating (cocklebur; [5]): 0
- Cocklebur plant response rating (cocklebur; [6]): 0
- Cocklebur plant response rating (cocklebur; [7]): 0
- Plant response rating, Rape (rape; [1]): 3
- Rape plant response rating (rape; [2]): 3
- Rape plant response rating (rape; [3]): 6
- Rape plant response rating (rape; [4]): 0
- Rape plant response rating (rape; [5]): 0
- Rape plant response rating (rape; [6]): 5
- Plant response rating, Sugarbeets (sugar beet; [1]): 0
- Sugarbeets plant response rating (sugar beet; [3]): 5
- Sugarbeets plant response rating (sugar beet; [4]): 0
- Sugarbeets plant response rating (sugar beet; [5]): 0
- Sugarbeets plant response rating (sugar beet; [6]): 2
- Plant response rating, Nutsedge (purple nutsedge; [1]): 0
- Nutsedge plant response rating (purple nutsedge; [2]): 0
- Nutsedge plant response rating (purple nutsedge; [3]): 0
- Nutsedge plant response rating (purple nutsedge; [4]): 0
- Nutsedge plant response rating (purple nutsedge; [5]): 0
- Nutsedge plant response rating (purple nutsedge; [6]): 0
- Nutsedge plant response rating (purple nutsedge; [7]): 0
- Plant response rating, B. signalgrass (surinam grass; [1]): 0
- B. signalgrass plant response rating (surinam grass; [2]): 0
- B. signalgrass plant response rating (surinam grass; [8]): 0
- B. signalgrass plant response rating (surinam grass; [9]): 0
- B. signalgrass plant response rating (surinam grass; [5]): 0
- B. signalgrass plant response rating (surinam grass; [6]): 0
- B. signalgrass plant response rating (surinam grass; [10]): 0
- Plant response rating, Corn (corn; [1]): 0
- Corn plant response rating (corn; [2]): 0
- Corn plant response rating (corn; [3]): 1
- Corn plant response rating (corn; [8]): 0
- Corn plant response rating (corn; [4]): 0
- Corn plant response rating (corn; [5]): 0
- Corn plant response rating (corn; [6]): 1
- Corn plant response rating (corn; [7]): 0
- Plant response rating, Redroot pigweed (pigweed; [1]): 2
- Redroot pigweed plant response rating (pigweed; [2]): 6
- Redroot pigweed plant response rating (pigweed; [3]): 8
- Redroot pigweed plant response rating (pigweed; [4]): 0
- Redroot pigweed plant response rating (pigweed; [5]): 0
- Redroot pigweed plant response rating (pigweed; [6]): 6
- Plant response rating, Velvetleaf (velvetleaf; [1]): 2
- Velvetleaf plant response rating (velvetleaf; [3]): 6
- Velvetleaf plant response rating (velvetleaf; [4]): 0
- Velvetleaf plant response rating (velvetleaf; [5]): 0
- Velvetleaf plant response rating (velvetleaf; [6]): 6
- Velvetleaf plant response rating (velvetleaf; [7]): 0
- Plant response rating, Giant foxtail (giant foxtail; [1]): 0
- Giant foxtail plant response rating (giant foxtail; [2]): 2
- Giant foxtail plant response rating (giant foxtail; [3]): 9
- Giant foxtail plant response rating (giant foxtail; [8]): 10
- Giant foxtail plant response rating (giant foxtail; [4]): 10
- Giant foxtail plant response rating (giant foxtail; [5]): 10
- Giant foxtail plant response rating (giant foxtail; [6]): 8
- Giant foxtail plant response rating (giant foxtail; [7]): 10

— US6737383B1, “Herbicidal oxadiazolidines” (priority 1999, dated 2004)
